# From paper PMC10108200, “Reaction Pathways for the Enzymatic Degradation of Poly(Ethylene Terephthalate): What Characterizes an Efficient PET‐Hydrolase?” (Chembiochem, 2022)
# Biological target: T1, IsP (Pseudideonella sakaiensis, UniProt A0A0K8P6T7)
# T1 construct: gene ISF6_4831; heterologously expressed and purified
# Assay: initial rates by RP-HPLC, Michaelis-Menten fit
# Format: biochemical
# Settings: 50 °C, 10 min, 0-2 mM substrate, 0.01-0.5 μM enzyme
# Text: initial rates by RP-HPLC, Michaelis-Menten fit on IsP
# T1 sequence (A0A0K8P6T7 28-290): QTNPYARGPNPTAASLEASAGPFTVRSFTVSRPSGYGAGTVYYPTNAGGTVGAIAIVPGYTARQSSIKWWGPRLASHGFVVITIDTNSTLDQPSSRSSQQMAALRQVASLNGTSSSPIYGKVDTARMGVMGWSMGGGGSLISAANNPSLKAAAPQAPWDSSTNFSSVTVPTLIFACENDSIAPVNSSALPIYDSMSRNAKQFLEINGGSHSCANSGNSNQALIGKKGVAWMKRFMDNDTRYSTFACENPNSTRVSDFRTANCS
row,Km [µM],SMILES
1,58 ± 29,O=C(O)c1ccc(C(=O)OCCOC(=O)c2ccc(C(=O)OCCOC(=O)c3ccc(C(=O)O)cc3)cc2)cc1 [TETET]
2,140 ± 36,O=C(O)c1ccc(C(=O)OCCOC(=O)c2ccc(C(=O)OCCO)cc2)cc1 [TETE]
